Results taken from US6399579B1, “Compositions comprising icariside I and anhydroicaritin and methods for making the same” (Hauser, Inc., priority 2000, dated 2002).
Where two headings read alike, the source gives them in different places.

Legend:
[1] = target: phosphodiesterase type V (PDE-5) (Homo sapiens, UniProt O76074); experiment: PDE-5 inhibition assay; format: biochemical
[2] = Partition of icariside I between ethyl acetate and water; format: physicochemical; conditions: hydrolyzate adjusted to pH 7.0
Protocol: The ethanolic hydrolyzate (25 mL) prepared in Example 1 was mixed with 62.5 mL of de-ionized water and the pH was adjusted to 7.0 using 50% (w/w) sodium hydroxide solution. The resulting mixture was extracted with three 25 mL portions of ethyl acetate and the combined ethyl acetate extracts were back extracted with 150 mL of water.

Structure (SMILES): COc1ccc(-c2oc3c(CC=C(C)C)c(O[C@@H]4O[C@H](CO)[C@@H](O)[C@H](O)[C@H]4O)cc(O)c3c(=O)c2O)cc1 [Entry 10, icariside I]
- PDE-5 inhibition (in words) [1]: strong PDE-5 inhibitor
- IC50 ([1]; read-out: PDE-5 IC50 (converted)): 622 nM
- partition coefficient between ethyl acetate and water [2]: 16

Structure (SMILES): COc1ccc(-c2oc3c(CCC(C)(C)O)c(O[C@@H]4O[C@H](CO)[C@@H](O)[C@H](O)[C@H]4O)cc(O)c3c(=O)c2O)cc1 [Entry 12, icariside I hydrate]
- PDE-5 IC50 [1]: 21.50 μg/mL
- PDE-5 inhibition (in words) [1]: essentially inactive

Structure (SMILES): COc1ccc(-c2oc3c(CC=C(C)C)c(O)cc(O)c3c(=O)c2O)cc1 [Entry 11, anhydroicaritin]
- IC50 [1]: 4070 nM
- PDE-5 inhibition (in words) [1]: significant inhibition of PDE-5
- PDE-5 inhibition (in words) ([1]; listed as anhydroicaritin): strong PDE-5 inhibitor
